Reference: ChEMBL document CHEMBL4602703, “Lead Optimization of a Pyrrole-Based Dihydroorotate Dehydrogenase Inhibitor Series for the Treatment of Malaria” (J Med Chem, 2020)
Converted amounts (≈) assume the structure as drawn.

Assays:
[1] = target: Dihydroorotate dehydrogenase (quinone), mitochondrial (Mus musculus, UniProt O35435)
[2] = target: T1, Dihydroorotate dehydrogenase (quinone), mitochondrial (Homo sapiens, UniProt Q02127)
Plasmodium falciparum [3] = experiment: microbe, parasite or virus in culture; settings: 3D7, 72 h
[4] = target: Dihydroorotate dehydrogenase (quinone), mitochondrial (Rattus norvegicus, UniProt Q63707)
Dihydroorotate dehydrogenase (quinone), mitochondrial (Rattus norvegicus, UniProt Q63707), sequence (Q63707 whole entry): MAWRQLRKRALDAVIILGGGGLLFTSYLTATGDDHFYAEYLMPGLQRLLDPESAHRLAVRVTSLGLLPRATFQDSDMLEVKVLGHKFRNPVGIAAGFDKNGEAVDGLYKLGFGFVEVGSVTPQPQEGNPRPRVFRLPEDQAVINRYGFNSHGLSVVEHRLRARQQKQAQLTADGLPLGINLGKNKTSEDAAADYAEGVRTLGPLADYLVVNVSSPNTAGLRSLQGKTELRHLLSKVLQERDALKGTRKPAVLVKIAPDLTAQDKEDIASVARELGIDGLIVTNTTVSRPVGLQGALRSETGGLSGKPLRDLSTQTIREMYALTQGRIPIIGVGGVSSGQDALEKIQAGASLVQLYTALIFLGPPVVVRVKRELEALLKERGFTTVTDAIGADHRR

Plasmodium falciparum [5] = tested on: Plasmodium falciparum
[6] = fAUC in Plasmodium falciparum 3D70087/N9 infected po dosed NOD-SCID IL2Rgamma null mouse blood administered once daily for 4 days; type: ADME, organism-based; settings: in vivo, 96 h
Plasmodium falciparum [7] = experiment: Antimalarial activity against Plasmodium falciparum 3D70087/N9 infected in NOD-SCID IL2Rgamma null mouse assessed as blood AUC level require to show 90% reduction in parasitemia administered administered once daily for 4 days; type: functional, organism-based
Plasmodium falciparum [8] = experiment: animal or person; settings: for EC50: 3D70087/N9, 96 h
[9] = Inhibition of N-terminal His6-tagged Plasmodium falciparum DHODH expressed in Escherichia coli BL21(DE3) cells using L-DHO as substrate by DCIP dye based assay
[10] = Intrinsic clearance in human liver microsomes assessed as per mg protein; type: ADME, Microsome
[11] = Intrinsic clearance in mouse liver microsomes assessed as per mg protein; type: ADME, Microsome
physchem [12] = settings: octanol/water, pH 7.4
Albumin [13] = target: T2, Albumin (Homo sapiens, UniProt P02768); experiment: Binding affinity to albumin (unknown origin) by chromatographic method; type: ADME; settings: for fraction unbound: albumin, read-out: PB (converted)
T2 sequence (P02768 whole entry, the tested form may be a part): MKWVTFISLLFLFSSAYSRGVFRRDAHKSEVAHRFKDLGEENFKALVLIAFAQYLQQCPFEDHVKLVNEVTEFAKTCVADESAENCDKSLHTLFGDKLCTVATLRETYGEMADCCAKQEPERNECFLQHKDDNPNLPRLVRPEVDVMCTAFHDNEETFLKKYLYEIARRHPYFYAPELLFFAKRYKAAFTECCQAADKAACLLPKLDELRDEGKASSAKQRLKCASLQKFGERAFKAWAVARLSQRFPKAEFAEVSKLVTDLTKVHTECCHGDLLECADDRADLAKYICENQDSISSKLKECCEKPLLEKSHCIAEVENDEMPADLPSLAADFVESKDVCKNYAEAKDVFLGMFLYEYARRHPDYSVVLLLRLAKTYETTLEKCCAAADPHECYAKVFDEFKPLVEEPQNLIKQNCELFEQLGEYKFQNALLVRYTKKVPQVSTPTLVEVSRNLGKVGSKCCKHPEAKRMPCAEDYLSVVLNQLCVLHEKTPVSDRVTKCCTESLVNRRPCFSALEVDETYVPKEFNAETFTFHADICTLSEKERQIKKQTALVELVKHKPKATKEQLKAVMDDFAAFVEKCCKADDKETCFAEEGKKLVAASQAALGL

[14] = target: T1, Dihydroorotate dehydrogenase (quinone), mitochondrial; experiment: Inhibition of C-terminal His6-tagged human DHODH (30 to 396 residues) expressed in Escherichia coli BL21(DE3) cells using L-DHO as substrate after 20 mins by 2,6-dichloroindophenol reduction based assay
[15] = Inhibition of C-terminal His6-tagged Plasmodium falciparum DHODH expressed in Escherichia coli BL21(DE3) cells using L-DHO as substrate after 20 mins by 2,6-dichloroindophenol reduction based assay
Plasmodium falciparum [16] = experiment: Antimalarial activity against Plasmodium falciparum R1AC1B harboring DHODH C276F mutant measured after 72 hrs by SYBR Green dye based fluorescence assay; type: functional, organism-based
[17] = Protein binding in human liver microsomes by LC-MS analysis based ultracentrifugation assay; type: ADME, Microsome; settings: read-out: PB (converted)
[18] = simulated gi fluid, pH 5.8
[19] = Protein binding in rat plasma by LC-MS analysis based ultracentrifugation assay; type: ADME, cell-free; settings: read-out: PPB (converted)
in vivo [20] = settings: Sprague-Dawley, rat, po
physchem [21] = settings: fasted state simulated gastric fluid, pH 1.6
[22] = Protein binding in DMEM medium containing 10% fetal calf serum by LC-MS analysis based ultracentrifugation assay; type: ADME, cell-free, Bos taurus; settings: cattle, serum
[23] = Intrinsic clearance in liver microsomes assessed as per mg protein; settings: read-out: CLH
Plasmodium falciparum [24] = experiment: microbe, parasite or virus in culture; settings: 1D3, 72 h
physchem [25] = settings: PBS, pH 7.4
[26] = Inhibition of yeast DHODH transformed in Plasmodium falciparum D10 in presence of 10 uM proguanil; parameters: species or system Saccharomyces cerevisiae
[27] = Oral bioavailability in Swiss mouse at 10 mg/kg by LC-MS analysis; type: ADME, organism-based; settings: in vivo
Plasmodium falciparum [28] = experiment: Antimalarial activity against Plasmodium falciparum R1BC1A harboring DHODH L531F mutant measured after 72 hrs by SYBR Green dye based fluorescence assay; type: functional, organism-based
[29] = Clearance in Sprague-Dawley rat plasma at […], iv by LC-MS analysis; type: ADME, organism-based; settings: in vivo
Albumin [30] = target: T2, Albumin; experiment: Binding affinity to albumin (unknown origin) in ALBUMAX medium; type: ADME; settings: read-out: PB (converted)
[31] = target: T3, Voltage-gated inwardly rectifying potassium channel KCNH2 (Homo sapiens, UniProt Q12809); experiment: Inhibition of human ERG by IonWorks patch clamp electrophysiology assay
T3 sequence (Q12809 whole entry): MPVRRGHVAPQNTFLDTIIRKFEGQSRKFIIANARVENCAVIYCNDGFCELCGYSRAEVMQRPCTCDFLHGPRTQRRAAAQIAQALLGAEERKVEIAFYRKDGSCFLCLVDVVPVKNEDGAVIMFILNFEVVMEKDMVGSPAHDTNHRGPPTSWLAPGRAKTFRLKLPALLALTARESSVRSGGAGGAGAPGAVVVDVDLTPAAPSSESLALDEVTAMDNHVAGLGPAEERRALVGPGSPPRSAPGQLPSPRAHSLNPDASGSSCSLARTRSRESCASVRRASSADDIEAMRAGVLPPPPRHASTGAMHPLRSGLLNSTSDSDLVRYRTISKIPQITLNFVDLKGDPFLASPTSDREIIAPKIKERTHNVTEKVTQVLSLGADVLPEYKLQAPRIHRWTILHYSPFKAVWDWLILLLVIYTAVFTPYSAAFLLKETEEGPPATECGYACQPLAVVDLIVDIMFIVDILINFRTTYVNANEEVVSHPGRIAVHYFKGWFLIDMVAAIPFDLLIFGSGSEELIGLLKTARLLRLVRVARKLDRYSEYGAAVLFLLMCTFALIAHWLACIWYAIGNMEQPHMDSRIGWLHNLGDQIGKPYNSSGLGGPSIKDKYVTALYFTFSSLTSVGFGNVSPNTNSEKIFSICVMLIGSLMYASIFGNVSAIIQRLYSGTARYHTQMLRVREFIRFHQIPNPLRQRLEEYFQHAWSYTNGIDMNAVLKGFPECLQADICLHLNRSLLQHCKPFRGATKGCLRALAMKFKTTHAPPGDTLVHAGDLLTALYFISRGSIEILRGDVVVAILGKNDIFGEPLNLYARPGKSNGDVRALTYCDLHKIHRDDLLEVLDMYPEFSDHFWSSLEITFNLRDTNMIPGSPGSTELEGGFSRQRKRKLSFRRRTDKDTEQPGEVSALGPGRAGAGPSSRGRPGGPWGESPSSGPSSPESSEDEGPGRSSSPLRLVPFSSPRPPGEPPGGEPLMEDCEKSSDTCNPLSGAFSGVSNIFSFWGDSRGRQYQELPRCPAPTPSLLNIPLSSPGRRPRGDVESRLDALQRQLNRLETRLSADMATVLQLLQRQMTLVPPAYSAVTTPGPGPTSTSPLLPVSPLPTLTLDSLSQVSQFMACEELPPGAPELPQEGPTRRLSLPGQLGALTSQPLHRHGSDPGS

in vivo [32] = settings: Swiss, mouse, po, 10 mg/kg
Plasmodium falciparum [33] = experiment: Antimalarial activity against Plasmodium falciparum 3D70087/N9 infected in po dosed NOD-SCID IL2Rgamma null mouse administered BID for 4 days by flow cytometric analysis; type: functional; settings: 3D70087/N9, po, 96 h
[34] = Cmax in Sprague-Dawley rat at 18.8 mg/kg, po by LC-MS analysis; type: ADME, organism-based; parameters: dose 18.8 mg/kg, route oral; settings: in vivo
Plasmodium falciparum [35] = type: functional, organism-based; settings: R10C1B, 72 h
physchem [36] = settings: fasted state simulated intestinal fluid, pH 6.5
[37] = target: T3, Voltage-gated inwardly rectifying potassium channel KCNH2; experiment: Inhibition of human ERG by patch clamp assay
[38] = Apparent half life in Swiss mouse at 10 mg/kg, po by LC-MS analysis; type: ADME, organism-based; settings: in vivo, read-out: t1/2(app) (converted)
Plasmodium falciparum [39] = type: functional, organism-based; settings: R2B, 72 h
[40] = AUC (0 to infinity) in Swiss mouse at 10 mg/kg, po by LC-MS analysis; type: ADME, organism-based; parameters: dose 10 mg/kg, route oral, time infinity; settings: in vivo
[41] = Cmax in Swiss mouse at 10 mg/kg, po by LC-MS analysis; type: ADME, organism-based; parameters: dose 10 mg/kg, route oral; settings: in vivo
HepG2 = experiment: Cytotoxicity against human HepG2 cells assessed as reduction in cell viability; type: cell-based
L1210 = experiment: Cytotoxicity against mouse L1210 cells assessed as reduction in cell viability; type: cell-based

T1 sequence (Q02127 whole entry): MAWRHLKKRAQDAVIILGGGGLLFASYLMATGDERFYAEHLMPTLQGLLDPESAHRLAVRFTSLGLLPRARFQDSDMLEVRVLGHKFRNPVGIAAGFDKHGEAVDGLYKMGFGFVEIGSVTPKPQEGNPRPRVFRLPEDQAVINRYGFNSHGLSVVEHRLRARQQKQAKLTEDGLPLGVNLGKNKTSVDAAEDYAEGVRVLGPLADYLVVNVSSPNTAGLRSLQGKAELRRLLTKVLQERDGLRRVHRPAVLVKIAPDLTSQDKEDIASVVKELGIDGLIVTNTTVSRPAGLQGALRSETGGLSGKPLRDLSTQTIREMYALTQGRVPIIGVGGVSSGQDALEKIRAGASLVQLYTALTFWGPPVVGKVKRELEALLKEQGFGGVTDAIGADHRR
Dihydroorotate dehydrogenase (quinone), mitochondrial (Mus musculus, UniProt O35435), sequence (O35435 whole entry): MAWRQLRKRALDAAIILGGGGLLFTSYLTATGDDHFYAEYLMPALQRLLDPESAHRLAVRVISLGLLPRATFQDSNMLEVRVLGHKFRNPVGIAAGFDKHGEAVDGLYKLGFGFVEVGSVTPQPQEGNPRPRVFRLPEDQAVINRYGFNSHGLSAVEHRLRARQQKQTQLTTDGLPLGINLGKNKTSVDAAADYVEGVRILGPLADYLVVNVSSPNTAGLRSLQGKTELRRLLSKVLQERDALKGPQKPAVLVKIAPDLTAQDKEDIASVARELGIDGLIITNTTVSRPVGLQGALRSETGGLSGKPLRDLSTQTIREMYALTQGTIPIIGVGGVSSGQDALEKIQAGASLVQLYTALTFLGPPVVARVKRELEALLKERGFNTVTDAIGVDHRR

Compound: CCOC(=O)c1[nH]c(C)c(Cc2ccc(C(F)(F)F)cc2)c1C
- IC50 [1]: > 100000 nM
- IC50 [2]: > 100000 nM
- EC50 (Plasmodium falciparum [3]): 61 to 71 nM
- IC50 [4]: > 100000 nM

Compound: Cc1cc(Nc2ccc(C(F)(F)F)nc2)n2nc(C(C)(F)F)nc2n1
- fEC50 (Plasmodium falciparum [5]): 0.007 µM
- fAUC [6]: 250 ng·h/mL
- AUCED90 (Plasmodium falciparum [7]): 12.9 µg·h/mL
- EC50 (Plasmodium falciparum [8]): 14 nM
- ED90 (Plasmodium falciparum [8]; 3D70087/N9, in Mus musculus, po, 96 h): 2.6 mg/kg/day

Compound: CCOC(=O)c1[nH]c(C)c(Cc2ccc(OC)cc2)c1C
- IC50 [1]: > 100000 nM
- IC50 [9]: 520 nM
- IC50 [2]: > 100000 nM
- EC50 (Plasmodium falciparum [3]): 590 nM
- IC50 [4]: > 100000 nM

Compound: Cc1c(Cc2ccc(C(F)(F)F)nc2)c[nH]c1C(=O)N1CC(F)(F)C1
- microsomal CLint [10]: 21 µL/min/mg
- IC50 [1]: > 100000 nM
- IC50 [9]: 33 nM
- microsomal CLint ([11]; microsomes): 94 µL/min/mg
- IC50 [2]: > 100000 nM
- logD (physchem [12]): 3.3
- EC50 (Plasmodium falciparum [3]): 29 nM
- fraction unbound (Albumin [13]): 0.251
- IC50 [4]: > 100000 nM

Compound: Cc1nc2cc(OC(F)(F)F)ccc2n1-c1ccc(C(=O)NC2CC2)s1
- IC50 [14]: > 30000 nM
- IC50 [15]: 22 nM
- EC50 (Plasmodium falciparum [3]): 7 nM

Compound: CCOC(=O)c1[nH]c(C)c(Cc2ccc(C(F)(F)F)nc2)c1C
- microsomal CLint [10]: 286 µL/min/mg
- IC50 [1]: > 100000 nM
- microsomal CLint ([11]; microsomes): 779 µL/min/mg
- IC50 [2]: > 100000 nM
- logD (physchem [12]): 3.7
- EC50 (Plasmodium falciparum [3]): 9.2 nM
- fraction unbound (Albumin [13]): 0.064
- IC50 [4]: > 100000 nM

Compound: Cc1[nH]c(C(=O)NC2CC2)c(C)c1Oc1ccc(C(F)(F)F)nc1
- microsomal CLint [10]: 8 µL/min/mg
- IC50 [9]: 800 nM
- microsomal CLint ([11]; microsomes): 22 µL/min/mg
- IC50 [2]: > 100000 nM
- logD (physchem [12]): 1.7
- EC50 (Plasmodium falciparum [3]): 290 nM
- fraction unbound (Albumin [13]): 0.573

Compound: Cc1cc(Nc2ccc(S(F)(F)(F)(F)F)cc2)n2nc(C(C)(F)F)nc2n1 [DSM-265]
- EC50 (Plasmodium falciparum [16]): 170 nM
- fraction unbound [17]: 0.283
- solubility [18]: 27.6 µg/mL (≈ 66.5 µM)
- fraction unbound [19]: 0.03
- Tmax (in vivo [20]): 3.3 h
- fEC50 (Plasmodium falciparum [5]): 0.001 µM
- solubility (physchem [21]): 6.8 µg/mL (≈ 16.4 µM)
- fAUC [6]: 15 to 23 ng·h/mL
- PB [22]: 78.5%
- microsomal CLint [10]: < 7 µL/min/mg
- microsomal CLint [23]: < 7 µL/min/mg
- EC50 (Plasmodium falciparum [24]): 23 nM
- solubility (physchem [25]): 2 µg/mL (≈ 4.82 µM)
- EC50 [26]: > 20000 nM
- bioavailability [27]: 61%
- IC50 [9]: 30 nM
- EC50 (Plasmodium falciparum [28]): 80 to 110 nM
- clearance [29]: 6.5 mL/min/kg
- fraction unbound (Albumin [30]): 0.169
- microsomal CLint ([11]; liver microsomes, read-out: CLH): 7 to 8 µL/min/mg
- EC50 [31]: 7000 nM
- EC50 (Plasmodium falciparum [8]): 6 nM
- Tmax (in vivo [32]): 1 to 2 h
- ED90 (Plasmodium falciparum [33]): 3 mg/kg/day
- Cmax [34]: 3.95 µM
- EC50 (Plasmodium falciparum [3]): 6 nM
- EC50 (Plasmodium falciparum [35]): 120 to 150 nM
- PB (Albumin [13]; isolated protein): 97.4%
- solubility (physchem [36]): 5.1 µg/mL (≈ 12.3 µM)
- EC50 [37]: 1600 nM
- half-life [38]: 2.4 h
- EC50 (Plasmodium falciparum [39]): 74 to 150 nM
- AUC(0-inf) [40]: 29.7 µM·h
- Cmax [41]: 3.94 µM
- CC50 (HepG2): > 50000 nM
- CC50 (L1210): > 50000 nM

Compound: CCNC(=O)c1[nH]c(C)c(Cc2ccc(C(F)(F)F)nc2)c1C
- microsomal CLint [10]: 70 µL/min/mg
- IC50 [9]: 54 nM
- microsomal CLint ([11]; microsomes): 54 µL/min/mg
- IC50 [2]: > 100000 nM
- logD (physchem [12]): 2.8
- EC50 (Plasmodium falciparum [3]): 33 nM
- fraction unbound (Albumin [13]): 0.229

Compound: Cc1c(Cc2ccc(C(F)(F)F)nc2)c[nH]c1C(=O)NC1CCC1
- microsomal CLint [10]: 29 µL/min/mg
- IC50 [9]: 44 nM
- microsomal CLint ([11]; microsomes): 204 µL/min/mg
- IC50 [2]: > 100000 nM
- logD (physchem [12]): 3.2
- EC50 (Plasmodium falciparum [3]): 27 nM
- fraction unbound (Albumin [13]): 0.165
